The structures appear in SMILES notation.

As a reminder, the IC50 is the point on the concentration scale where inhibition reaches its midpoint.

The first assay deals with IL-1β production in PMA-differentiated THP-1 cells. The experiment in a line: IL-1β production in PMA-differentiated THP-1 cells stimulated with gramicidin (hTHP-1 assay, 2% fetal bovine serum; Procedures 1-3). The class given is cell-based, human. The following applies: Homo sapiens, THP-1, Table B3; hTHP-1 assay containing 2% fetal bovine serum, gramicidin stimulation, IL-1β readout; read-out: hTHP-1 IC50. The method in brief:
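IL-1β released into supernatants was read by HTRF after 2 h gramicidin (5 μM) challenge. Before challenge, compounds (3-fold dilutions, top 100 μM, 0.37% DMSO) were given 1 h on THP-1 cells differentiated with PMA (20 ng/ml, 16-18 h) and held in 2% FBS medium.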
With `NS(=O)(=NC(=O)Nc1c2c(cc3c1CCC3)CCC2)c1ccc(-c2ccccc2)s1` (stereo not drawn) [Example 759, N′-((1,2,3,5,6,7-hexahydro-s-indacen-4-yl)carbamoyl)-5-phenylthiophene-2-sulfonimidamide], the IC50 fell in the range of 5000 to 30000 nM.
Regarding `CC(C)(O)c1sc(S(N)(=O)=NC(=O)Nc2c3c(cc4c2CCC4)CCC3)cc1-c1ccccc1` (stereo not drawn) [Example 760, N′-((1,2,3,5,6,7-hexahydro-s-indacen-4-yl)carbamoyl)-5-(2-hydroxypropan-2-yl)-4-phenylthiophene-2-sulfonimidamide], the IC50 was 200 to 1000 nM.
On the same count and under the same terms, the figure for `C[C@](O)(COCCOCCOCCOCCOCc1ccccc1)c1ncc(S(N)(=O)=NC(=O)Nc2c3c(cc4c2CCC4)CCC3)s1` (stereo partly drawn) [Example 761, N-((1,2,3,5,6,7-hexahvdro-s-indacen-4-yl)carbamoyl)-2-((S)-16-hydroxy-1-phenyl-2,5,8,11,14-pentaoxaheptadecan-16-yl)thiazole-5-sulfonimidamide] is 200 to 1000 nM; for `CC(C)(O)c1cccc(S(N)(=O)=NC(=O)Nc2c3c(cc4c2CCC4)CCC3)n1` (stereo not drawn) [Example 763, N′-((1,2,3,5,6,7-hexahydro-s-indacen-4-yl)carbamoyl)-6-(2-hydroxypropan-2-yl)pyridine-2-sulfonimidamide] it is 1000 to 5000 nM; for `CN(C)CC(C)(C)c1ccc(S(N)(=O)=NC(=O)Nc2c3c(cc4c2CCC4)CCC3)cc1` (stereo not drawn) [Example 764, 4-(1-(Dimethylamino)-2-methylpropan-2-yl)-N′-((1,2,3,5,6,7-hexahydro-s-indacen-4-yl)carbamoyl)benzenesulfonimidamide] it is 1000 to 5000 nM.
`CC(C)c1cnc(S(N)(=O)=NC(=O)Nc2c3c(cc4c2CCC4)CCC3)c(F)c1` (stereo not drawn) [Example 765, 3-Fluoro-N'-((1,2,3,5,6,7-hexahydro-s-indacen-4-yl)carbamoyl)-5-isopropylpyridine-2-sulfonimidamide]: the IC50 lay in the range of 1000 to 5000 nM.
On to `CC(C)(O)c1sc(S(N)(=O)=NC(=O)Nc2c3c(cc4c2CCC4)CCC3)nc1CO` (stereo not drawn) [Example 767, N′-((1,2,3,5,6,7-hexahydro-s-indacen-4-yl)carbamoyl)-4-(hydroxymethyl)-5-(2-hydroxypropan-2-yl)thiazole-2-sulfonimidamide], for which the IC50 was 40 to 200 nM.
For the compound `CC1c2c(csc2S(N)(=O)=NC(=O)Nc2c3c(cc4c2CCC4)CCC3)CN1C` (stereo not drawn) [Example 768, N′-((1,2,3,5,6,7-hexahydro-s-indacen-4-yl)carbamoyl)-5,6-dimethyl-5,6-dihydro-4H-thieno[3,4-c]pyrrole-1-sulfonimidamide], the 50% inhibitory concentration (IC50) was in the range of 200 to 1000 nM.
The same measure, in the same setting: the figure for `CN1CCc2sc(S(N)(=O)=NC(=O)Nc3c4c(cc5c3CC5)CCC4)c(F)c2C1` (stereo not drawn) [Example 769, 3-Fluoro-5-methyl-N′-((2,4,5,6-tetrahydro-1H-cyclobuta[f]inden-3-yl)carbamoyl)-4,5,6,7-tetrahydrothieno[3,2-c]pyridine-2-sulfonimidamide] is 40 to 200 nM.
`NS(=O)(=NC(=O)Nc1c2c(cc3c1CC3)CCC2)c1sc2c(c1F)COCC2` (stereo not drawn) [Example 770, 3-Fluoro-N′-((2,4,5,6-tetrahydro-1H-cyclobuta[f]inden-3-yl)caibamoyl)-6,7-dihydro-4H-thieno[3,2-c]pyran-2-sulfonimidamide]: the IC50 lay in the range of 200 to 1000 nM.
Regarding `CC(C)(CO)c1ncc(S(N)(=O)=NC(=O)Nc2c3c(c(C#N)c4c2CCC4)CCC3)s1` (stereo not drawn) [Example 772, N′-((8-cyano-1,2,3,5,6,7-hexahydro-s-indacen-4-yl)carbamoyl)-2-(1-hydroxy-2-methylpropan-2-yl)thiazole-5-sulfonimidamide], the IC50 is 40 to 200 nM.
On the same count and under the same terms, the same measure for `NS(=O)(=NC(=O)Nc1c2c(cc3c1CC3)CCC2)c1cc2c(s1)CCN(CC(F)F)C2` (stereo not drawn) [Example 773, 5-(2,2-Difluoroethyl)-N′-((2,4,5,6-tetrahydro-1H-cyclobuta[f]inden-3-yl)carbamoyl)-4,5,6,7-tetrahydrothieno[3,2-c]pyridine-2-sulfonimidamide]: 1000 to 5000 nM; for `COC1CCc2c(csc2S(N)(=O)=NC(=O)Nc2c3c(cc4c2CCC4)CCC3)C1` (stereo not drawn) [Example 774, N′-((1,2,3,5,6,7-hexahydro-s-indacen-4-yl)carbamoyl)-5-methoxy-4,5,6,7-tetrahydrobenzo[c]thiophene-1-sulfonimidamide]: 1000 to 5000 nM.
In the case of `COC1CCc2csc(S(N)(=O)=NC(=O)Nc3c4c(cc5c3CCC5)CCC4)c2C1` (stereo not drawn) [Example 775, N′-((1,2,3,5,6,7-hexahydro-s-indacen-4-yl)carbamoyl)-6-methoxy-4,5,6,7-tetrahydrobenzo[c]thiophene-1-sulfonimidamide], the IC50 was 1000 to 5000 nM.
The same measure, in the same setting: the same measure for `CNCc1csc(S(N)(=O)=NC(=O)Nc2c3c(cc4c2CC4)CCC3)c1F` (stereo not drawn) [Example 777, 3-Fluoro-4-((methylamino)methyl)-N′-((2,4,5,6-tetrahydro-1H-cyclobuta[f]inden-3-yl)carbamoyl)thiophene-2-sulfonimidamide]: 40 to 200 nM.
On the same count and under the same terms, the same measure for `CNC1CCc2cc(S(N)(=O)=NC(=O)Nc3c4c(cc5c3CCC5)CCC4)sc2C1` (stereo not drawn) [Example 778, N′-((1,2,3,5,6,7-hexahydro-s-indacen-4-yl)carbamoyl)-6-(methylamino)-4,5,6,7-tetrahydrobenzo[b]thiophene-2-sulfonimidamide]: 200 to 1000 nM.
Regarding `CNCc1csc(S(N)(=O)=NC(=O)Nc2c3c(cc4c2CCC4)CCC3)c1F` (stereo not drawn) [Example 779, 3-Fluoro-N′-((1,2,3,5,6,7-hexahydro-s-indacen-4-yl)carbamoyl)-4-((methylamino)methyl)thiophene-2-sulfonimidamide], the 50% inhibitory concentration (IC50) lay within 40 to 200 nM.
With `NS(=O)(=NC(=O)Nc1c2c(cc3c1CCC3)CCC2)c1cnc(C(O)(COCCOCc2ccccc2)COCCOCc2ccccc2)s1` (stereo not drawn) [Example 780, N′-((1,2,3,5,6,7-hexahydro-s-indacen-4-yl)carbamoyl)-2-(7-hydroxy-1,13-diphenyl-2,5,9,12-tetraoxatridecan-7-yl)thiazole-5-sulfonimidamide], the concentration for half-maximal inhibition (IC50) was 1000 to 5000 nM.
On to `NS(=O)(=NC(=O)Nc1c2c(cc3c1CC3)CCC2)c1cc2c(s1)CCNC2C(F)F` (stereo not drawn) [Example 781, 4-(Difluoromethyl)-N′-((2,4,5,6-tetrahydro-1H-cyclobuta[f]inden-3-yl)carbamoyl)-4,5,6,7-tetrahydrothieno[3,2-c]pyridine-2-sulfonimidamide], for which the half-inhibitory concentration (IC50) was in the range of 40 to 200 nM.
On to `COc1cc(-c2ccc3c(c2NC(=O)N=[S@@](N)(=O)c2cnc(C(C)(C)O)s2)CCC3)ccn1` [Example 784, (R)-2-(2-hydroxypropan-2-yl)-N′-((5-(2-methoxypyridin-4-yl)-2,3-dihydro-1H-inden-4-yl)carbamoyl)thiazole-5-sulfonimidamide], for which the half-maximal inhibitory concentration (IC50) fell in the range of 8 to 40 nM.
On the same count and under the same terms, the figure for `NS(=O)(=NC(=O)Nc1c2c(cc3c1CC3)CCC2)c1nn(C(F)F)cc1F` (stereo not drawn) [compound 734, 1-(Difluoromethyl)-4-fluoro-N′-((2,4,5,6-tetrahydro-1H-cyclobuta[f]inden-3-yl)carbamoyl)-1H-pyrazole-3-sulfonimidamide] is 40 to 200 nM.
On the same count and under the same terms, the figure for `CC(C)n1nc(S(N)(=O)=NC(=O)Nc2c3c(cc4c2C(=O)CC4)CCC3)cc1CO` (stereo not drawn) [compound 739, 5-(Hydroxymethyl)-1-isopropyl-N′-((3-oxo-1,2,3,5,6,7-hexahydro-s-indacen-4-yl)carbamoyl)-1H-pyrazole-3-sulfonimidamide] is 1000 to 5000 nM; for `C#CCCC1(CCC(=O)N(C)Cc2ccc([S@@](N)(=O)=NC(=O)Nc3c4c(cc5c3CCC5)CCC4)cc2)N=N1` [compound 771] it is 200 to 1000 nM.
For the compound `CN1CCC(c2ccc(S(N)(=O)=NC(=O)Nc3c4c(cc5c3CCC5)CCC4)c(F)c2)C1` (stereo not drawn) [compound 776, 2-Fluoro-N′-((1,2,3,5,6,7-hexahydro-s-indacen-4-yl)carbamoyl)-4-(1-methylpyrrolidin-3-yl)benzenesulfonimidamide], the IC50 lay in the range of 5000 to 30000 nM.

The same assay, now with this note: Homo sapiens, THP-1, hTHP-1 assay containing 2% fetal bovine serum, Table B2, class symbols; read-out: IC50.
As to `CC(OC(F)F)c1ccc(S(N)(=O)=NC(=O)Nc2c3c(cc4c2CCC4)CCC3)cc1` (stereo not drawn) [compound 452, 4-(1-(Difluoromethoxy)ethyl)-N′-((1,2,3,5,6,7-hexahydro-s-indacen-4-yl)carbamoyl)benzenesulfonimidamide], the IC50 lay within 1000 to 5000 nM.
In the case of `CNCC(C)(C)c1ccc(S(N)(=O)=NC(=O)Nc2c3c(cc4c2CCC4)CCC3)cc1` (stereo not drawn) [compound 496, N′-((1,2,3,5,6,7-hexahydro-s-indacen-4-yl)carbamoyl)-4-(2-methyl-1-(methylamino)propan-2-yl)benzenesulfonimidamide], the IC50 was 1000 to 5000 nM.
With `CNCc1csc(S(N)(=O)=NC(=O)Nc2c3c(cc4c2CCC4)CCC3)c1` (stereo not drawn) [compound 672, N′-((1,2,3,5,6,7-hexahydro-s-indacen-4-yl)carbamoyl)-4-((methylamino)methyl)thiophene-2-sulfonimidamide], the half-maximal inhibitory concentration (IC50) lay within 40 to 200 nM.

Still in this assay, the particulars now being: Table B3; hTHP-1 assay containing 2% fetal bovine serum, gramicidin stimulation, IL-1β readout; read-out: hTHP-1 IC50.
Consider `CN1CCCC(c2ccc(S(N)(=O)=NC(=O)Nc3c4c(cc5c3CC5)CCC4)c(F)c2)C1` (stereo not drawn) [Example 766, 2-Fluoro-4-(1-methylpiperidin-3-yl)-N′-((2,4,5,6-tetrahydro-1H-cyclobuta[f]inden-3-yl)carbamoyl)benzenesulfonimidamide], for which the concentration for half-maximal inhibition (IC50) is 1000 to 5000 nM.
Same read-out and setting: the figure for `CC(NC1CCC1)c1ccc(S(N)(=O)=NC(=O)Nc2c3c(cc4c2CC4)CCC3)c(F)c1` (stereo not drawn) [Example 846, (R/S, S)-4-(1-(cyclobutylamino)ethyl)-2-fIuoro-N′-((2,4,5,6-tetrahydro-1H-cyclobuta[f]inden-3-yl)carbamoyl)benzenesulfonimidamide] is 1000 to 5000 nM.
Still for that read-out and setting: the same measure for `NS(=O)(=NC(=O)Nc1c2c(cc3c1CCC3)CCC2)c1ccc(C2CCN2)cc1` (stereo not drawn) [Example 863, (S/R, R)-4-(azetidin-2-yl)-N′-((1,2,3,5,6,7-hexahydro-s-indacen-4-yl)carbamoyl)benzenesulfonimidamide]: 200 to 1000 nM.

The record behind these values is patent US20230051589A1, “COMPOUNDS AND COMPOSITIONS FOR TREATING CONDITIONS ASSOCIATED WITH NLRP ACTIVITY” (Novartis AG, priority 2018, published 2023).
